Data set [1] concerns RAW264.7. Description: Antiinflammatory activity in mouse RAW264.7 cells assessed as inhibition in LPS-stimulated nitric oxide production. Format: functional, cell-based.
In data set [2] the test system is HCT-116. Nature of the data set: Cytotoxicity against human HCT116 cells. Format: functional, cell-based.
Data set [3] relates to HCT-116. Nature of the data set: Induction of apoptosis in human HCT116 cells assessed as activation of caspase 3/7 at 2.5 to 20 uM after 2 hrs 30 mins by luciferase reporter assay. Format: functional, cell-based. In general terms: Reporter assays use an easily measured gene product as a stand-in for the process of interest.
Data set [4] relates to HCT-116. Nature of the data set: Induction of apoptosis in human HCT116 cells assessed as nuclear condensation at 100 uM by fluorescence assay. Format: functional, cell-based.
Data set [5] concerns RAW264.7. Nature of the data set: Cytotoxicity against LPS/IFN-gamma stimulated mouse RAW264.7 cells assessed as cell survival at 2 to 8 uM by MTT assay. Format: cell-based. The conditions noted are these: raw264.7, 8 µM. On the technique in general: Tetrazolium dyes change colour on reduction, which living cells bring about.
Data set [6] has as its system RAW264.7. Nature of the data set: Anti-inflammatory activity in mouse RAW264.7 cells assessed as inhibition of LPS/IFN-gamma-stimulated iNOS mRNA expression by RT-PCR analysis. Format: functional, cell-based.
For data set [7], the system named is RAW264.7. Description: Anti-inflammatory activity in mouse RAW264.7 cells assessed as inhibition of LPS/IFN-gamma-stimulated iNOS mRNA expression at 2 uM by RT-PCR analysis (reference value: 28.91 ng/uL). Format: functional.
The subject of data set [8] is RAW264.7. Nature of the data set: Anti-inflammatory activity in mouse RAW264.7 cells assessed as inhibition of LPS/IFN-gamma-stimulated iNOS mRNA expression at 4 uM by RT-PCR analysis (reference value: 28.91 ng/uL). Format: functional.
The subject of data set [9] is RAW264.7. Description: Anti-inflammatory activity in mouse RAW264.7 cells assessed as inhibition of LPS/IFN-gamma-stimulated iNOS mRNA expression at 8 uM by RT-PCR analysis (reference value: 28.91 ng/uL). Format: functional.
Data set [10] relates to RAW264.7. Description: Anti-inflammatory activity in mouse RAW264.7 cells assessed as inhibition of LPS/IFN-gamma-stimulated COX2 mRNA expression by RT-PCR analysis. Format: functional, cell-based.
Data set [11] deals with RAW264.7. Nature of the data set: Anti-inflammatory activity in mouse RAW264.7 cells assessed as inhibition of LPS/IFN-gamma-stimulated COX2 mRNA expression at 2 uM by RT-PCR analysis (reference value: 54.51 ng/uL). Format: functional.
Data set [12] relates to RAW264.7. Nature of the data set: Anti-inflammatory activity in mouse RAW264.7 cells assessed as inhibition of LPS/IFN-gamma-stimulated COX2 mRNA expression at 4 uM by RT-PCR analysis (reference value: 54.51 ng/uL). Format: functional.
Data set [13] deals with RAW264.7. Description: Anti-inflammatory activity in mouse RAW264.7 cells assessed as inhibition of LPS/IFN-gamma-stimulated COX2 mRNA expression at 8 uM by RT-PCR analysis (reference value: 54.51 ng/uL). Format: functional.

The source made the active and inactive calls. The calls are words filed in the database; no cut-off is given here.

For `O=C1c2c(O)cc(O)cc2O[C@H](c2ccc(O)cc2)[C@H]1O`, the inhibition result in the data set with RAW264.7 [1] was “Dose-dependent effect”.

As usually defined, the IC50 is the concentration needed to halve the response being measured. In the data set on HCT-116 [2], `C=C(CCCC(C)=O)[C@@H]1[C@@H](OC(C)=O)OC=C2[C@H](CC=C(C)C)OC(=O)C[C@H]21` displayed an IC50 of 5.85 µM. For the same compound, the outcome in the data set on HCT-116 [3] and in the data set with HCT-116 [4] was Active. Moreover, the inhibition entry in the data set with RAW264.7 [1], with RAW264.7 [6] and with RAW264.7 [10] was “Dose-dependent effect” in each case. The Activity entry was “Non-toxic” in the data set with RAW264.7 [5]; 24.62 ng/µL with RAW264.7 [7]; 10.94 ng/µL with RAW264.7 [8]; 8.25 ng/µL in the data set with RAW264.7 [9]; 37.36 ng/µL in the data set on RAW264.7 [11]; 21.48 ng/µL in the data set with RAW264.7 [12]. In addition, in the data set with RAW264.7 [13], the Activity was determined as 13.75 ng/µL.

In the data set on HCT-116 [2], `C=CC(=C)[C@@H]1[C@@H](OC(C)=O)OC=C2[C@H](CC=C(C)C)OC(=O)C[C@H]21` came in with an IC50 of 6.04 µM. Also, the outcome in the data set with HCT-116 [3] and in the data set on HCT-116 [4] was Active. For the same compound, the inhibition entry in the data set on RAW264.7 [1], in the data set on RAW264.7 [6] and with RAW264.7 [10] was “Dose-dependent effect” throughout. The Activity entry in the data set with RAW264.7 [5] was “Non-toxic”; with RAW264.7 [7] it was 20.66 ng/µL; with RAW264.7 [8] it was 12.44 ng/µL; in the data set with RAW264.7 [9] it was 6.58 ng/µL; with RAW264.7 [11], 37.1 ng/µL; with RAW264.7 [12] it was 31.77 ng/µL. Moreover, in the data set with RAW264.7 [13], the Activity stood at 15.93 ng/µL.

The record behind these values is ChEMBL document CHEMBL3621204, “Dual biological functions of the apoptotic activity and anti-inflammatory effect by alcyonolide congeners from the Okinawan soft coral, Cespitularia sp” (Bioorg Med Chem Lett, 2015).
